1 substance from patent publication US20250059232A1, “PENTAPEPTIDE AND USE THEREOF” (ENSOL BIOSCIENCES INC., priority 2021, published 2025) can be followed below.

Data set [1] concerns 4T1 cells. Description: Syngeneic model implanted with paclitaxel-resistant 4T1 cells: tumor volume, Western blot of cleaved PARP and LC3II. The format is in vivo, mouse. The settings on record: for Reduction in tumor volume compared to the group administered with only paclitaxel: Balb/c mice, 3 weeks; for Increase in cleaved PARP expression level in tumor compared to paclitaxel-only group / Reduction in LC3II expression level in tumor compared to paclitaxel-only group: Western blot after 3-week administration. The protocol: Cell death and autophagy marker changes were determined by the Western blot method, using a syngeneic model implanted with 4T1 cells (American Type Culture Collection (ATCC)), which are mouse triple negative breast cancer tumor cells resistant to paclitaxel. The drug administration was started, when the tumor volume was reached to 70 mm^3 after a fat pad of Balb/c mice (6 weeks old, female) was transplanted with 4T1 cells in a concentration of 1×10^6 cells/head. For Week 1, paclitaxel 20 mg/kg was administered on Day 1 and Day 2, and the peptide (10, 100 mg/kg) of Example 1 was co-administered on Day 3, Day 5, and Day 7. In addition, the same process was performed for each of Week 2, and Week 3 (n=3). The tumor volumes were measured daily because the tumors grew very quickly. The changes in cleaved PARP, which is a cell death marker, and the changes in LC3II, which is an autophagy marker, in tumors were analyzed after necropsy on the day after the end of the 3-week administration, by a Western blot test.
FIG. 5 is a graph illustrating the results of tumor volume measurements according to the number of days after treatment in animal experimentation. In FIG. 5, the x-axis represents the number of days elapsed after treatment and the y-axis represents the tumor volume change (mm^3).
In addition, the changes in cleaved PARP, which is a cell death marker, are shown in FIG. 6, and the changes in LC3II, which is an autophagy marker, are shown in FIG. 7. FIG. 6 is a graph showing the changes in expression of cleaved PARP, which is a cell death marker, for each treatment group in animal experimentation, and FIG. 7 is a graph showing the changes in expression of LC3II, which is an autophagy marker, for each treatment group in animal experimentation.
For orientation: A western blot detects proteins with antibodies after separation by electrophoresis.

A short description of data set [2]: 4-week repeated subcutaneous toxicity and toxicokinetic test in beagle dogs. The format is in vivo, beagle dog. The protocol: In addition, 3 female and male beagle dogs were used per group to repeatedly subcutaneously administer the pentapeptide of Example 1 at doses of 40, 120, 400 mg/kg for 4 weeks daily. During the test period, general symptom observation, weight and feed intake measurements, ophthalmological examination, electrocardiogram, urinalysis, hematology and clinical biochemistry test, and toxicokinetic examination were performed. In addition, organ weight measurements, visual inspection, and histopathological examination of autopsy subjects were performed. […] Thus, the NOAEL (No Observed Adverse Effect Level) of the pentapeptide of Example 1 for female and male beagle dogs under the presented test conditions is determined to be 400 mg/kg/day.

The subject of data set [3] is MDA-MB-231. Nature of the data set: MDA-MB-231 xenograft in BalB/c nude mouse: survival rate. Particulars: 100 mg/kg subcutaneously 3 times weekly, co-administered with paclitaxel 20 mg/kg once weekly. In kind it is in vivo. The protocol:
To investigate survival rates of the paclitaxel-only administration group and the group co-administered with paclitaxel and the peptide of Example 1, experiments described below were performed. 5×10^6 cells/head of the human triple negative breast cancer cell line MDA-MB-231 were mixed with Matrigel and PBS (1:1). 100 ul of the mixture was injected into the right third fat pad of 7-week-old female BalB/c nude mouse. After the transplantation, drug administration started from an average tumor size of 70 mm^3. Paclitaxel 20 mg/kg was administered once weekly, and the peptide 100 mg/kg of Example 1 was administered subcutaneously 3 times weekly at 48-hour intervals, 48 hours after the paclitaxel administration. Each test group was administered for 12 weeks and animal survival was observed daily. FIG. 10 is a graph illustrating survival rates over time after sample administration in animal experimentation. In FIG. 10, the x-axis represents the elapsed time (days) after administration and the y-axis represents survival rates (%). […] In the case of the group co-administered with the peptide of Example 1, the first deceased mouse occurred on Day 60 of administration.

[4] abbreviates: 10 mg/kg co-administered with paclitaxel.
Where [5] appears, read: 100 mg/kg co-administered with paclitaxel, p<0.05.
[6] abbreviates: 40, 120, 400 mg/kg subcutaneous daily for 4 weeks.

For the substance Ac-QLHLD-OH [Example 1, acetyl-QLHLD], the “Reduction in tumor volume compared to the group administered with only paclitaxel” value in data set [1] (10 mg/kg co-administered with paclitaxel 20 mg/kg) was 20%. In data set [1] (setting [4]), the “Increase in cleaved PARP expression level in tumor compared to paclitaxel-only group” value came out at 2 fold and the “Reduction in LC3II expression level in tumor compared to paclitaxel-only group” value was found to be 38%. Besides, the “Reduction in tumor volume compared to the group administered with only paclitaxel” value in data set [1] (100 mg/kg co-administered with paclitaxel 20 mg/kg) is reported as 40%. For the same substance, in data set [1] (setting [5]), the “Increase in cleaved PARP expression level in tumor compared to paclitaxel-only group” value is recorded as 3 fold and the “Reduction in LC3II expression level in tumor compared to paclitaxel-only group” value was 86%. In addition, in data set [2] (setting [6]), the “Abnormalities (body weight, feed intake, ophthalmic examination, electrocardiogram, urinalysis, hematology, clinical biochemistry, necropsy, organ weight)” value is “No abnormalities” and the Deaths result was “no deaths were observed”. Also, the “Systemic exposure (AUClast, Cmax), dose dependence” value in data set [2] (Day 1 and Day 28, 40, 120, 400 mg/kg) is given as “approximately proportionally increased with increase in the dose”. For the same substance, in data set [2] (Day 1 vs Day 28), the Accumulation result is listed as “no pentapeptide accumulation”. Besides, the NOAEL at 4 weeks in data set [2] (both sexes, dog, in vivo, sc, female and male, subcutaneous, daily for 4 weeks, read-out: NOAEL (No Observed Adverse Effect Level)) amounted to 400 mg/kg/day. Besides, the “Day of administration on which the first deceased mouse occurred” value in data set [3] was 60 days.

In general, NOAEL refers to the highest tested level that showed no adverse finding.
